41 molecules from ChEMBL document CHEMBL4480388, “Rad51/BRCA2 disruptors inhibit homologous recombination and synergize with olaparib in pancreatic cancer cells” (Eur J Med Chem, 2019) can be followed below.

Active and inactive are the calls of the source. The calls are words filed in the database; no cut-off is given here.

Data set [1] addresses T1, DNA repair protein RAD51 homolog 1 (Homo sapiens, UniProt Q06609).
T1 sequence (Q06609 whole entry): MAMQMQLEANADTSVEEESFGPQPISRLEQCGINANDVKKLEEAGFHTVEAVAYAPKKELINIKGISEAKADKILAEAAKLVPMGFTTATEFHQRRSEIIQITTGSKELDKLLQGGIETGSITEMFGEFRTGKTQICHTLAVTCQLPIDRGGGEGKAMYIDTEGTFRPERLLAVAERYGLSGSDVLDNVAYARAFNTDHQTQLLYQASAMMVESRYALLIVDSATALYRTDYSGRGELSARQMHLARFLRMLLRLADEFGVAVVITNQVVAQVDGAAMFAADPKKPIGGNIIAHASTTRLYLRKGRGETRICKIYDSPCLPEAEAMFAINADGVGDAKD
Nature of the data set: Displacement of N-terminal biotinylated-BRC4 from recombinant human Rad51 expressed in Escherichia coli by ELISA. In general terms: An ELISA detects its analyte on a solid surface through an enzyme-linked reagent.

Data set [2] addresses T2, DNA repair protein RAD51 homolog 1 (Homo sapiens) (UniProt Q06609).
T2 sequence (whole entry): T1 sequence (Q06609 whole entry)
Put plainly: Binding affinity to Rad51 in human BxPC3 cells assessed as reduction in protein-mediated homologous recombination at 5 to 30 uM measured after 16 hrs by reporter gene based PCR analysis. The format is cell-based.

Data set [3] has as its system BXPC-3. Nature of the data set: Induction of apoptosis in human BxPC3 cells assessed as increase in BAX level at 20 uM measured after 144 hrs by Western blotting analysis. The data set is classed as functional, cell-based. For orientation: Immunoblotting shows a protein as a band on a membrane.
For data set [4], the system named is BXPC-3. Put plainly: Synergistic cytotoxicity against human BxPC3 cells assessed as combination index at 20 uM measured after 144 hrs in presence of PARP inhibitor olaparib by CellTox green dye based fluorescence assay. The format is functional.
Data set [5] concerns the target T2, DNA repair protein RAD51 homolog 1 (Homo sapiens). Nature of the data set: Binding affinity to Rad51 in human BxPC3 cells assessed as reduction in protein-mediated homologous recombination at 20 uM measured after 16 hrs by reporter gene based PCR analysis relative to control. The data set is classed as cell-based. Also on record: scale not given: the % may be the effect or the level left. (In general: A reporter such as luciferase makes a cellular process visible.)

In data set [6] the test system is CAPAN-1. Put plainly: Effect on homologous recombination in human Capan1 cells at 10 to 20 uM measured after 16 hrs by reporter gene based PCR analysis. The format is functional, cell-based.
Data set [7] relates to BXPC-3. Nature of the data set: Induction of DNA damage in human BxPC3 cells assessed as increase in gammaH2AX phosphorylation level at 20 uM measured after 144 hrs by Western blotting analysis. The format is functional, cell-based.
Data set [8] relates to BXPC-3. Nature of the data set: Induction of DNA damage in human BxPC3 cells assessed as increase in gammaH2AX phosphorylation level at 20 uM measured after 144 hrs in presence of PARP inhibitor olaparib by Western blotting analysis relative to control. The format is functional.
Data set [9] concerns BXPC-3. Put plainly: Induction of apoptosis in human BxPC3 cells assessed as caspase-3 activation at 20 uM measured after 144 hrs by Western blotting analysis. The format is functional, cell-based.
Data set [10] has as its system BXPC-3. Nature of the data set: Induction of apoptosis in human BxPC3 cells assessed as increase in PUMA level at 20 uM measured after 144 hrs by Western blotting analysis. The format is functional, cell-based.
Data set [11] deals with CAPAN-1. Put plainly: Synergistic cytotoxicity against human Capan1 cells assessed as reduction in cell viability at 20 uM measured after 72 hrs in presence of PARP inhibitor olaparib by crystal violet staining based assay. The data set is classed as functional.
Data set [12] relates to BXPC-3. Put plainly: Synergistic cytotoxicity against human BxPC3 cells assessed as reduction in cell viability measured after 72 hrs in presence of PARP inhibitor olaparib by crystal violet staining based assay. The data set is classed as functional.
Data set [13] deals with BXPC-3. Nature of the data set: Synergistic cytotoxicity against human BxPC3 cells assessed as reduction in cell viability at 20 uM measured after 72 hrs in presence of PARP inhibitor olaparib by crystal violet staining based assay. The format is functional.
Data set [14] deals with BXPC-3. Put plainly: Synergistic cytotoxicity against human BxPC3 cells assessed as reduction in cell viability at 20 uM measured after 144 hrs in presence of PARP inhibitor olaparib by CellTox green dye based fluorescence assay. The data set is classed as functional.
In data set [15] the test system is CAPAN-1. Put plainly: Effect on homologous recombination in human Capan1 cells at 20 to 40 uM measured after 16 hrs by reporter gene based PCR analysis. The format is functional, cell-based.
Data set [16] deals with BXPC-3. Put plainly: Synergistic cytotoxicity against human BxPC3 cells assessed as reduction in cell viability at 40 uM measured after 72 hrs in presence of PARP inhibitor olaparib by crystal violet staining based assay. The data set is classed as functional.
In data set [17] the target is T2, DNA repair protein RAD51 homolog 1 (Homo sapiens). Put plainly: Binding affinity to Rad51 in human BxPC3 cells assessed as reduction in protein-mediated homologous recombination at 40 uM measured after 16 hrs by reporter gene based PCR analysis relative to control. The format is cell-based. Also noted: scale not given: the % may be the effect or the level left.

Data set [18] deals with CAPAN-1. Nature of the data set: Synergistic cytotoxicity against human Capan1 cells assessed as reduction in cell viability at 40 uM measured after 72 hrs in presence of PARP inhibitor olaparib by crystal violet staining based assay. The data set is classed as functional.
Data set [19] in a line: Solubility of the compound in RPMI 1640 medium. The format is physicochemical.

Consider `O=C(CSc1nnc(Cn2c(=O)sc3ccccc32)n1CCc1ccccc1F)NC1CCCC1`, for which the concentration for a half-maximal effect (EC50) result in data set [1] was “Not Active”.

With `O=C(CSc1nnc(CN2CCSC2=O)n1CCCc1ccccc1)NC1CCCC1`, the 50% effective concentration (EC50) entry in [1] was “Not Active”.

Turning to `O=C(CSc1nnc(Cn2c(=O)sc3ccccc32)n1CCCc1ccccc1)N1CCCCC1`, the EC50 entry in data set [1] is listed as “Not Active”.

As for `O=C(CSc1nnc(Cn2c(=O)sc3ccccc32)n1CCCc1ccccc1)NC1CCCC1`, the half-maximal effective concentration (EC50) in data set [1] (read-out: EC50) came out at 25 µM. Besides, in data set [2], the result was inactive. Regarding `O=C(CSc1nnc(Cn2c(=O)sc3ccccc32)n1CCc1cccc(O)c1)NC1CCCC1`, the half-maximal effective concentration (EC50) result in data set [1] is given as “Not Active”. `Cl.Nc1cccn(Cc2nnc(SCC(=O)NC3CCCC3)n2CCCc2ccccc2)c1=O`: the EC50 entry in data set [1] is “Not Active”. For `O=C(CSc1nnc(Cn2c(=O)sc3ccccc32)n1CCc1ccccc1)N1CCOCC1`, the half-maximal effective concentration (EC50) entry in [1] is “Not Active”.

On to `Cc1ccc(C#N)c(=O)n1Cc1nnc(SCC(=O)NC2CCCC2)n1CCCc1ccccc1`, for which, in [1], the concentration giving a half-maximal response (EC50) entry is on record as “Not Active”. Same read-out and setting: to `NC(=O)CSc1nnc(Cn2c(=O)sc3ccccc32)n1CCc1ccccc1` belongs “Not Active”; to `CN1CCC(NC(=O)CSc2nnc(Cn3c(=O)sc4ccccc43)n2CCCc2ccccc2)CC1`, “Not Active”; to `COc1ccc2sc(=O)n(Cc3nnc(SCC(=O)NC4CCCC4)n3CCc3ccccc3)c2c1`, “Not Active”.

For the molecule `O=C(CSc1nnc(Cn2c(=O)sc3ccccc32)n1CCc1ccccc1)NCc1ccc(F)cc1`, the concentration giving a half-maximal response (EC50) entry in [1] is “Not Active”.

As for `O=C(CSc1nncn1CCc1ccccc1)NC1CCCC1`, in data set [1], the concentration giving a half-maximal response (EC50) result is “Not Active”. Still for that read-out and setting: under `O=C(CSc1nnc(Cn2c(=O)sc3ccc(O)cc32)n1CCc1ccccc1)NC1CCCC1` stands “Not Active”; under `O=C(CSc1nnc(Cn2c(=O)sc3ccccc32)n1CCCc1cccnc1)NC1CCCC1`, “Not Active”.

As to `O=C(CSc1nnc(Cn2c(=O)sc3ccccc32)n1CCCc1ccccc1)NC1CCCCC1`, the result in data set [3], in data set [6], in data set [7], in data set [9], in data set [10] and in data set [11] was inactive. Besides, the CI in data set [4] was determined as 0.76. In addition, the results for the Activity in data set [5], in data set [8] and in data set [12] were 40%, above 70% and “Dose-dependent effect”, respectively. In addition, in data set [1] (read-out: EC50), the 50% effective concentration (EC50) amounted to 8 µM. The result in data set [13] and in data set [14] was Active. For the molecule `O=C(CSc1nnc(Cn2c(=O)sc3ccccc32)n1CCc1cccc(F)c1)NC1CCCC1`, the concentration giving a half-maximal response (EC50) result in [1] is given as “Not Active”.

Regarding `O=C(CSc1nnc(Cn2c(=O)sc3ccccc32)n1CCc1ccccc1)N1CCCC1`, the EC50 entry in data set [1] is “Not Active”. On the same count and under the same terms, under `O=c1sc2ccccc2n1Cc1nnc(S)n1CCc1ccccc1` stands “Not Active”; under `O=C(CSc1nnc(CNc2ccccc2)n1CCc1ccccc1)NC1CCCC1`, “Not Active”. For `O=C(CSc1nnc(Cn2c(=O)sc3ccccc32)n1CCc1ccccc1)Nc1ccccc1`, the 50% effective concentration (EC50) in data set [1] (read-out: EC50) turned out to be 95 µM.

Regarding `Cl.NCc1ccc(-c2nnc(SCC(=O)NC3CCCC3)n2CCc2ccccc2)cc1`, the EC50 entry in data set [1] was “Not Active”. Same read-out and setting: under `O=C(CSc1nnc(Cn2c(=O)sc3ccccc32)n1CCCc1ccccn1)NC1CCCC1` stands “Not Active”. As for `O=C(CSc1nnc(Cn2c(=O)oc3ccccc32)n1CCCc1ccccc1)NC1CCCC1`, in data set [1] (read-out: EC50), the EC50 was 90 µM. Consider `O=C(CSc1nnc(Cn2c(=O)sc3ccc(F)cc32)n1CCc1ccccc1)NC1CCCC1`, for which the EC50 entry in data set [1] is “Not Active”.

`O=C(CSc1nnc(Cn2c(=O)sc3ccccc32)n1CCc1ccccc1)NC1CC1`: the 50% effective concentration (EC50) entry in data set [1] is given as “Not Active”. The same measure, in the same setting: to `O=C(CSc1nnc(Cn2c(=O)sc3ccccc32)n1CCc1ccc(F)cc1)NC1CCCC1` belongs “Not Active”; to `Cc1cccc(CCn2c(Cn3c(=O)sc4ccccc43)nnc2SCC(=O)NC2CCCC2)c1`, “Not Active”. Turning to `O=C(CSc1nnc(Cn2c(=O)sc3ccccc32)n1CCCc1ccncc1)NC1CCCC1`, the EC50 entry in data set [1] is “Not Active”. Still for that read-out and setting: to `O=C(CSc1nnc(Cn2c(=O)sc3ccccc32)n1CCc1ccccc1O)NC1CCCC1` belongs “Not Active”; to `O=C(CSc1nnc(Cn2c(=O)sc3ccccc32)n1CCc1ccccc1)NCc1ccccc1`, “Not Active”; to `O=C(CSc1nnc(Cn2c(=O)sc3ccccc32)n1CCCc1ccccc1)Nc1ccccc1`, “Not Active”. The same measure, in the same setting: to `O=C(CSc1nnc(Cn2c(=O)sc3ccccc32)n1CCc1ccccc1)NC1CCCCC1` belongs “Not Active”; to `O=C(CSc1nnc(Cn2c(=O)sc3ccccc32)n1CCCc1ccccc1)C1CCCC1`, “Not Active”; to `Cc1nnc(SCC(=O)NC2CCCC2)n1CCc1ccccc1`, “Not Active”.

With `Cc1ccccc1CCn1c(Cn2c(=O)sc3ccccc32)nnc1SCC(=O)NC1CCCC1`, the half-maximal effective concentration (EC50) in data set [1] (read-out: EC50) turned out to be 100 µM. On to `O=C(CSc1nnc(Cn2c(=O)sc3ccccc32)n1CCCc1ccccc1)NC1CC1`, for which the result in [15], in data set [16] and in [18] was inactive. For the same molecule, the EC50 in data set [1] (read-out: EC50) was 24 µM. In data set [17], the Activity worked out at 24%. Turning to `O=C(CSc1nnc(Cn2c(=O)sc3ccccc32)n1CCCc1ccccc1)NC1CCC1`, in data set [1] (read-out: EC50), the EC50 was 42 µM. In addition, the solubility entry in [19] is reported as “Insoluble”.

Take `O=C(CSc1nnc(Cn2ccsc2=O)n1CCCc1ccccc1)NC1CCCC1`: the EC50 entry in [1] is “Not Active”. Turning to `O=C(CSc1nnc(Cn2c(=O)sc3ccccc32)n1CCc1ccccc1)NC1CCCC1`, the half-maximal effective concentration (EC50) in data set [1] (read-out: EC50) was found to be 53 µM. As for `O=C(CSc1nnc(Cn2c(=O)[nH]c3ccccc32)n1CCCc1ccccc1)NC1CCCC1`, the concentration giving a half-maximal response (EC50) result in [1] was “Not Active”.

The term EC50 denotes the concentration giving half of the maximal effect.
